Literature values as cited in patent US20120149888A1, “SYNTHESIS OF ARA-2'-O-METHYL-NUCLEOSIDES, CORRESPONDING PHOSPHORAMIDITES AND OLIGONUCLEOTIDES INCORPORATING NOVEL MODIFICATIONS FOR BIOLOGICAL APPLICATION IN THERAPEUCTICS, DIAGNOSTICS, G- TETRAD FORMING OLIGONUCLEOTIDES AND APTAMERS” (priority 2009, published 2012).
“Also recorded” adds a separate entry of the source. Read-outs that look alike come from different tables or passages of the source.

Experiments:
[1] = rhesus monkey, in vivo
[2] = system: explants of intact rat colonic mucosa
[3] = system: equilibrative NBMPR-sensitive nucleoside transporter (es); conditions: growth-inhibitory concentrations
[4] = 6-Mercaptopurine-resistant L1210/MP(III)
[5] = 5-Fluorouracil-resistant P815-E176

## Nc1ncn([C@@H]2O[C@H](CO)[C@@H](O)[C@@H]2O)c(=O)n1 [AAC, Arabinosyl-5-azacytosine]
[1]
  CSF clearance exceeds the rate of CSF bulk flow: 5 fold
  greater CSF drug exposure, intrathecal or intraventricular versus systemic: 50 fold
[1]; 200 mg/kg
  area under the CSF concentration x time curve, intraventricular 10 mg versus intravenous 200 mg/kg: fifty fold
  peak CSF concentration, intraventricular 10 mg versus intravenous 200 mg/kg: one hundred
[1]; icv or intrathecal, 10 mg
  CSF clearance: 0.2 mL/min

## Nc1nc(N)c2c(Cl)c(CNc3ccc(C(=O)N[C@@H](CC(=O)O)C(=O)O)cc3)ccc2n1 [Chlorasquin]
L1210/MP(III); mouse, in vivo
  Response to chemotherapeutic drugs: collaterally sensitive: Chlorasquin

## O=c1[nH]c(=O)n([C@H]2C[C@H](O)[C@@H](CO)O2)cc1F [Compound 5-FUdR]
[2]
  incorporation of tritiated TdR into DNA: not altered
  levels of tritiated deoxyuridine: reduced

## O=P1(N(CCCl)CCCl)NCCCO1 (centres unmarked) [Cytoxan]
L1210 TG/R; mouse, in vivo
  Response to chemotherapeutic drugs: Same as parent line: no change in response; also recorded: Cytoxan
P815-E176; in vivo
  Response to chemotherapeutic drugs: Same as parent line: no change in response; also recorded: Cytoxan
L5178Y/ara-C; in vivo
  Response to chemotherapeutic drugs: Same as parent line: Cytoxan

## N[C@@H](Cc1ccc(N(CCCl)CCCl)cc1)C(=O)O [L-PAM, L-phenylalanine mustard methanol]
L1210 TG/R; mouse, in vivo
  Response to chemotherapeutic drugs: collaterally sensitive: L-PAM
P815-E176; in vivo
  Response to chemotherapeutic drugs: collaterally sensitive: L-PAM

## Cc1c(CNc2ccc(C(=O)N[C@@H](CC(=O)O)C(=O)O)cc2)ccc2ncnc(N)c12 [Methasquin]
L1210/MP(III); [4]
  Response to chemotherapeutic drugs: collaterally sensitive: Methasquin

## Cc1cn([C@H]2C[C@H](O)[C@@H](CO)O2)c(=O)[nH]c1=O [TdR, Thymidine]
[3]
  expression of es: no significant effect

## S=P(N1CC1)(N1CC1)N1CC1 [Thio-TEPA, triethylenethiophosphoramide]
L1210 TG/R; mouse, in vivo
  Response to chemotherapeutic drugs: collaterally sensitive: Thio-TEPA
P815-E176; in vivo
  Response to chemotherapeutic drugs: Cross-resistant: cross-resistance; also recorded: Thio-TEPA

## Nc1nc2nc[nH]c2c(=S)[nH]1 [Thioguanine]
P815-E176; [5]
  Response to chemotherapeutic drugs: Same as parent line: Thioguanine

## C[C@@]1(CO)[C@H](O)CC[C@@]2(C)[C@H]1CC[C@H]1C[C@@H]3C[C@@]12CC[C@]3(O)CO [aphidicolin]
[3]
  expression of es: no significant increase

## [N-]=[N+]=CC(=O)OC[C@H](N)C(=O)O [azaserine]
L1210/MP(III); [4]
  Response to chemotherapeutic drugs: collaterally sensitive: collaterally sensitive
L1210 TG/R; Thioguanine-resistant L1210 TG/R
  Response to chemotherapeutic drugs: Same as parent line: not altered; also recorded: azaserine
P815-E176; [5]
  Response to chemotherapeutic drugs: Same as parent line: Azaserine

## CO[C@@]12[C@H](COC(N)=O)C3=C(C(=O)C(C)=C(N)C3=O)N1C[C@@H]1N[C@@H]12 [mitomycin C]
L1210/MP(III); mouse, in vivo
  Response to chemotherapeutic drugs: collaterally sensitive: collaterally sensitive

## Neocarzinostatin
L1210/MP(III); mouse, in vivo
  Response to chemotherapeutic drugs: collaterally sensitive: collateral sensitivity; also recorded: Neocarzinostatin

B1: L-asparaginase: L-asparaginase, enzyme drug (protein, UniProt P00805 23-348, looked up)
L-asparaginase 2: LPNITILATGGTIAGGGDSATKSNYTVGKVGVENLVNAVPQLKDIANVKGEQVVNIGSQDMNDNVWLTLAKKINTDCDKTDGFVITHGTDTMEETAYFLDLTVKCDKPVVMVGAMRPSTSMSADGPFNLYNAVVTAADKASANRGVLVVMNDTVLDGRDVTKTNTTDVATFKSVNYGPLGYIHNGKIDYQRTPARKHTSDTPFDVSKLNELPKVGIVYNYANASDLPAKALVDAGYDGIVSAGVGNGNLYKSVFDTLATAAKTGTAVVRSSRVPTGATTQDAEVDDAKYGFVASGTLNPQKARVLLQLALTQTKDPQQIQQIFNQY
L5178Y/ara-C; L5178Y/ara-C
  Response to chemotherapeutic drugs: Cross-resistant: L-asparaginase
  Response to chemotherapeutic drugs: collaterally sensitive: collaterally sensitive
